Results reported in patent publication US8901129B2, “Methods of facilitating neural cell survival using GDNF family ligand (GFL) mimetics or RET signaling pathway activators” (GeneCode AS, priority 2009, dated 2014).

Legend:
[1] = test system: Rat dopaminergic neurons; assay: Dopaminergic neuron survival with MPP+ intoxication; assay type: cell-based; settings: MPP+ 16 μM, 48 hours
Procedure: Rat dopaminergic neurons were cultured as described by Schinelli et al., 1988. Briefly pregnant female rats of 15 days gestation were killed by cervical dislocation (Rats Wistar; Janvier) and the fetuses removed from the uterus. The embryonic midbrains were removed and placed in ice-cold medium of Leibovitz (L15; Invitrogen) containing 1% of Penicillin-Streptomycin (PS; Invitrogen) and 1% of bovine serum albumin (BSA; Sigma). Only the ventral portions of the mesencephalic flexure were used for the cell preparations as this is the region of the developing brain rich in dopaminergic neurons.
The midbrains were dissociated by trypsinisation for 20 min at 37° C. (10% of trypsin EDTA 10×; Invitrogen) diluted in PBS without calcium and magnesium. The reaction was stopped by the addition of Dulbecco's modified Eagle's medium (DMEM; Invitrogen) containing DNAase I grade II (0.1 mg/ml; Roche Diagnostic;) and 10% of fetal calf serum (FCS; Invitrogen). Cells were then mechanically dissociated by 3 passages through a 10 ml pipette. Cells were then centrifuged at 180×g for 10 min at room temperature on a layer of BSA (3.5%) in L15 medium. The supernatant was discarded and the cells of pellet were re-suspended in a defined culture medium consisting of Neurobasal (Invitrogen) supplemented with B27 (2%; Invitrogen), L-glutamine (0.2 mM; Invitrogen) and 1% of PS solution. Viable cells were counted in a Neubauer cytometer using the trypan blue exclusion test.
The cells were seeded at a density of 69 000 cells/well in 96 well-plates (wells were pre-coated with poly-L-lysine (10 μg/ml; Sigma)) and were cultured at 37° C. in a humidified air (95%)/CO2 (5%) atmosphere. Half of the medium was changed every 2 days with fresh medium. In these conditions, after 5 days of culture, astrocytes were present in the culture and release growth factor allowing neurons differentiation. Three to five percent of the neuronal cell population were dopaminergic neurons.
On day 6, the medium was removed and fresh medium was added with or without MPP^+ at 16 μM and with or without test substance. After 48 hours of intoxication (day 8 of culture), the cells were fixed with PFA 4%. Dopaminergic neurons were labeled by a monoclonal anti-tyrosine hydroxylase (TH) antibody (Sigma). This antibody labels the neurites and cell bodies of dopaminergic neurons. […] For each condition, 2×10 pictures per well were taken using InCell Analyzer™ 1000 (Amersham Biosciences) with 10× magnification. All the images were taken in the same conditions.
Analysis of the neurite length and number of neurons labeled with anti tyrosine hydroxylase (TH) antibodies with or without MPP+ intoxication was carried out using InCell Analyzer™ 1000 3.2.Workstation software. Dopaminergic neurons and total length neurites were counted on the 10 pictures (12 analyses by culture condition).

[2] = target: T1, RET via GFRα (UniProt P07949+Q62997); assay: RET phosphorylation assay by immunoprecipitation and Western blotting (FIG. 4); assay type: cell-based; settings: FIG. 4 lanes; active / inactive
T1 construct: Full-length flag-tagged rat Gfrα1 cDNA; FLAG; expressed in transfected cells; host or cells: αLUC cells: MG87RET murine fibroblasts stably transfected with GFRα1 plasmid, Gal4-Luc and Gal4-Elk
Procedure: αLUC and NOα cells plated on 35 mm tissue culture dishes were starved for 4 hours in serum-free DMEM and stimulated with 500 ng/ml of PSPN or 100 ng/ml of GDNF (positive control) for 15 min. […] The membranes were washed 3 times for 5 min in TBS-T and incubated in the 1:3000 solution of secondary anti-mouse antibodies conjugated with HRP (DAKO) diluted in TBS-T containing 3% nonfat dry milk for 45 min at room temperature. Membranes were washed with TBS-T for 5×10 min. Stained bands were visualized with ECL reagent (Pierce) using LAS3000 imaging program. […] We used secondary anti-goat antibodies conjugated with HRP (1:1500, DAKO) to detect C-20.

[3] = test system: 6-OHDA-treated rats; assay: Side effects / toxic effects after intrastriatal injection in 6-OHDA-treated rats; assay type: in vivo; settings: injected intrastriatally
Procedure: (§1) GDNF mimetics compounds, GDNF or vehicle is administered to the striatum at 3 weeks after the exposure to the neurotoxin 6-OHDA. The selective damage to dopaminergic neurons in the SNc, as well as striatal levels of dopamine and its metabolites are evaluated 12 weeks after the injection of 6-OHDA with tyrosine hydroxylase (TH) immunohistochemistry and HPLC, respectively. In addition, the behavioral impairment of rats is evaluated by forelimb asymmetry test (cylinder test), amphetamine induced rotation asymmetry test and Y-maze test for stereotypic spontaneous rotation deficits.
(§2) On day 21, rats are re-anesthetized with 5% isoflurane (in 70% N2O and 30% O2; flow 300 ml/min) and placed in a stereotactic frame. During the operation concentration of anesthetic is reduced to 1-1.5%. The rectal temperature is maintained at 37.0±1.0° C. with a homeothermic blanket system. The right brain hemisphere is exposed through a small craniectomy to the skull. A stereotaxic injection of the test compound, GDNF or vehicle is made into the right striatum. Each dosing solution is infused at a speed of 1 μl/min and is equally distributed between 4 sites at the following coordinates: AP+1.0, ML+2.8, DV−6.0, −5.5, −5.0 and −4.4 mm. The cannula is left in place for another 5 min before being withdrawn. The hole in the skull is subsequently filled with repair material and the skin is closed and disinfected. The rats are allowed to recover from anesthesia and are carefully monitored for possible post surgical complications. The animals are returned to the home cages with ad libitum access to food and water.
Animals are monitored daily by laboratory personnel. […] Definitions of acceptable endpoints include: no spontaneous movements and inability to drink or eat in 24-h observation period, massive bleeding, spontaneous inflammation, missing anatomy, swelling or tumors larger than 20 mm, and inability to right itself in 30 sec period.

[4] = test system: 6-OHDA lesioned rats; assay: Amphetamine induced rotation asymmetry in 6-OHDA rat model of Parkinson's disease (FIG. 7); assay type: in vivo
Source text: The objective of this study is to investigate the effect of intrastriatally (i.s.) administered small molecule GDNF mimetics (compounds 13, 16, 319H6 and 292651, structures shown in the description of the Figures, above) in a rat model 6-OHDA of Parkinson's disease. In the sub-acute lesion model used in this study, the lesion of the substantia nigra (SNc) that slowly progresses over weeks is created by injection of 6-OHDA into the proximity of the dopaminergic terminals in the striatum (Kirik-D 1998, Exp. Neurol. 152:259-277). In this model, a portion of the nigrostriatal projection is left intact, which can serve as a substrate for regeneration and functional recovery in response to growth promoting and neuroprotective agents.
as §1
Animals: All animal experiments are carried out according to the National Institute of Health (NIH) guidelines for the care and use of laboratory animals, and approved by the State Provincial Office of Southern Finland. Altogether 108 male Wistar rats, purchased from Charles River, Germany and weighing 220-275 g are used for the experiment. Animals are housed at a standard temperature (22±1° C.) and in a light-controlled environment (lights on from 7 am to 8 pm) with ad libitum access to food and water. Animals are grouped as follows:
as §2, with “In order to generate partial retrograde degeneration into the SNc, 6-OHDA lesioning is carried out according to Sauer and Oertel with modifications (Sauer and Oertel, 1994). Male Wistar rats” for “On day 21, rats”, “are anesthetized” for “are re-anesthetized”, “skull. The dura mater is carefully removed with fine forceps and a” for “skull. A”, “of 6-OHDA (4 μg/μl)” for “of the test compound, GDNF or vehicle”, “striatum. A total of 7 μl of 6-OHDA” for “striatum. Each dosing solution”, “of 0.5” for “of 1”
as §2, with “The rats are allowed to recover from anesthesia and are carefully monitored for possible post surgical complications. The animals are returned to the home cages with ad libitum access to food and water.” left out

T1 sequence (Q62997 25-430 limits assumed): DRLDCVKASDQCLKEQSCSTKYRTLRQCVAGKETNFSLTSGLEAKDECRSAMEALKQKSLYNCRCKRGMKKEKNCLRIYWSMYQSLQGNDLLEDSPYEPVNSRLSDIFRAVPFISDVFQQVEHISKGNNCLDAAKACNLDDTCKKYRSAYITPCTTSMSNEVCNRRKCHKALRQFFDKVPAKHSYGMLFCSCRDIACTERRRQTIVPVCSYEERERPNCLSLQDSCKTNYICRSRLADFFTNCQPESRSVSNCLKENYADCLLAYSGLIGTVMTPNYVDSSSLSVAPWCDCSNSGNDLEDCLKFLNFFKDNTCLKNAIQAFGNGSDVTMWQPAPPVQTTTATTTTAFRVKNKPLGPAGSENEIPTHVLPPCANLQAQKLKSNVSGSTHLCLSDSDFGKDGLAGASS
T1 sequence (P07949 29-1114): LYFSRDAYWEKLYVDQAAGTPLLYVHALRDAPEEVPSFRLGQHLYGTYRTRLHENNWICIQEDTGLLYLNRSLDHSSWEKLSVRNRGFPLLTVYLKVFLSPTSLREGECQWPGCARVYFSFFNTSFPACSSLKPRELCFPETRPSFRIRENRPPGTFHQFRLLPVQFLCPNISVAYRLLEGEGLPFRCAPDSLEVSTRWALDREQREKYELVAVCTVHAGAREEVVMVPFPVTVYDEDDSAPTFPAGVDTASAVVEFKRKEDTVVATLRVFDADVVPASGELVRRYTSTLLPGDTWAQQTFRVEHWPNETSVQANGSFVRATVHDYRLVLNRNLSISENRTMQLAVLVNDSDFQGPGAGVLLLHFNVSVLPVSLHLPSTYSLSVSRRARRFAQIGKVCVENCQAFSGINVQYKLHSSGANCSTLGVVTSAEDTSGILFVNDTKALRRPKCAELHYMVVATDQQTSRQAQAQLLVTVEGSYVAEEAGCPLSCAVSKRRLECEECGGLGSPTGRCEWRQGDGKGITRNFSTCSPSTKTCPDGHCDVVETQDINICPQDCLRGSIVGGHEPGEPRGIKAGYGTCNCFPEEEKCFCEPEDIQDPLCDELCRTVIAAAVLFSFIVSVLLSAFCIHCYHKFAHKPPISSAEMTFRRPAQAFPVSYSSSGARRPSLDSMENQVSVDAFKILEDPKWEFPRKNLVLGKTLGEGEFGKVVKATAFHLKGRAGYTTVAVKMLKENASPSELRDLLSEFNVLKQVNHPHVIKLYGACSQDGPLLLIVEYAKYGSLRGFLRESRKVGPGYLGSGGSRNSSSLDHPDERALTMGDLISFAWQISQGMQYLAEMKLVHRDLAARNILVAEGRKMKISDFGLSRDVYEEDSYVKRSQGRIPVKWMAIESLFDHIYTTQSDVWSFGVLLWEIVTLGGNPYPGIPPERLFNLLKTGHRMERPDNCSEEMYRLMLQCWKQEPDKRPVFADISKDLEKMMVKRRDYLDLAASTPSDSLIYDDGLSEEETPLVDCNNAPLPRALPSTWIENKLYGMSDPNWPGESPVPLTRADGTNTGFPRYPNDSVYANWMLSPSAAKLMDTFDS

Molecule: CCN(CC)S(=O)(=O)c1ccc(OC)c(N2CCN(C(=O)c3ccc(F)cc3C(F)(F)F)CC2)c1 [319H6]
- % Cytoprotection vs controls ([1]; 0.1 μM): 9%
- % TH+ Neurons ([1]; 0.1 μM): 59%
- % Cytoprotection vs controls ([1]; 1 μM): 33%
- % TH+ Neurons ([1]; 1 μM): 70%
- % Cytoprotection vs controls ([1]; 10 μM): 36%
- % TH+ Neurons ([1]; 10 μM): 71%

Molecule: CCN(CC)CCCC(C)Nc1ccnc2cc(Cl)ccc12 (stereo not drawn) [chloroquine]
- RET activation (phosphotyrosine Western blot of immunoprecipitated RET) [2]: inactive

Molecule: CCN(CC)CCCCCCNc1ccnc2cc(Cl)ccc12 [compound 108]
- RET activation (phosphotyrosine Western blot of immunoprecipitated RET) [2]: inactive

Molecule: OCCNCCNc1c2ccccc2nc2cc(Cl)ccc12 [compound 13005]
- RET activation (phosphotyrosine Western blot of immunoprecipitated RET) [2]: inactive

Molecule: CC(CCCN(C)Cc1ccccc1)Nc1ccnc2cc(Cl)ccc12 (stereo not drawn) [compound 143511]
- RET activation (phosphotyrosine Western blot of immunoprecipitated RET) [2]: active

Molecule: CCN(CC)CCCC(C)Nc1cc(/C=C/c2ccc(Cl)cc2)nc2ccc(N(C)C)cc12 (stereo not drawn) [compound 219902]
- RET activation (phosphotyrosine Western blot of immunoprecipitated RET) [2]: active

Molecule: CCN(CC)CCCC(C)Nc1cc(/C=C/c2ccc(Cl)cc2)nc2cc(N(C)C)ccc12 (stereo not drawn) [compound 292651]
- toxic effects in behavioral assays [3]: did not cause toxic effects
- RET activation (phosphotyrosine Western blot of immunoprecipitated RET) [2]: active
- amphetamine-induced ipsilateral rotation ([4]; 1 ug intrastriatal, 3 weeks after 6-OHDA, measured 6 weeks after 6-OHDA): reduced amphetamine-induced ipsilateral rotation
- amphetamine-induced ipsilateral rotation of lesioned rats ([4]; injected into striatum 3 weeks after 6-OHDA, dose not stated): significantly reduce

Molecule: Clc1ccc2c(NCCCCCCNc3ccnc4cc(Cl)ccc34)ccnc2c1 [compound 349051]
- RET activation (phosphotyrosine Western blot of immunoprecipitated RET) [2]: inactive

B1: BDNF: native brain-derived neurotrophic factor, comparator in the neuron survival assay (protein, UniProt P23560 19-247, looked up)
Neurotrophic factor BDNF …: APMKEANIRGQGGLAYPGVRTHGTLESVNGPKAGSRGLTSLADTFEHVIEELLDEDQKVRPNEENNKDADLYTSRVMLSSQVPLEPPLLFLLEEYKNYLDAANMSMRVRRHSDPARRGELSVCDSISEWVTAADKKTAVDMSGGTVTVLEKVPVSKGQLKQYFYETKCNPMGYTKEGCRGIDKRHWNSQCRTTQSYVRALTMDSKKRIGWRFIRIDTSCVCTLTIKRGR
- % Cytoprotection vs controls ([1]; 10 ng/mL): 49%
- % TH+ Neurons ([1]; 10 ng/mL): 77%
